From a melting point compilation (Tetko et al.; mined from patent text by program, amines drawn as free bases though some values may be those of a salt)

Row | SMILES | melting point [°C]
1 | CONC(=O)C=C1SC(Nc2c(Cl)cccc2Cl)=NC1=O | 205 to 206
2 | CC1(C(O)C(c2cccc(Cl)c2)n2ccnc2)COC1 (centres undefined) | 145 to 146
3 | OCc1ccnc(Nc2ncc(-c3ccccc3)s2)c1 | 236 to 237
4 | Cn1cnc2nc(-c3ccc(F)cc3)nn2c1=S | > 300
5 | CCCCC(NC(=O)c1ccccc1)C(=O)CN(C)C(=O)N1CCCC1C(=O)O (centres undefined) | 40 to 80
6 | C=C(C)C(=O)Oc1ccc(N(C)S(C)(=O)=O)cc1 | 126 to 127
7 | Cc1cc(-c2ccc(Cl)cc2)n2ncc(C#N)c2n1 | 285 to 287
8 | O=c1cc(Oc2c(Cl)cccc2Cl)c2cc(OC(F)F)ccc2o1 | 145 to 148
9 | CCCN1CCN(c2nc(C)c(C(=O)NCc3cccnc3)s2)C1=O | 109 to 111
10 | c1ccc(CNc2nnc(Cc3ccncc3)c3ccccc23)cc1 | 137 to 138
11 | Cc1nc2c(c3c1[nH]c1ccccc13)C(=O)CC(c1ccccc1)C2 (centres undefined) | 246 to 248
12 | C=CCC(C)(C)CNc1cc(N2CCNCC2)nc(NCC(C)(C)CC=C)n1 | 72 to 84
13 | O=C1N(Cc2ccc(C(F)(F)F)o2)c2ccccc2C12COc1cc(NC3CCNC3)ccc12 (centres undefined) | 122 to 125
14 | Cc1ccc(S(=O)(=O)NCCCn2c(CCO)nc3c(N)nc4ccccc4c32)cc1 | 231 to 232
15 | CN1CCN(C2=Nc3cc(F)ccc3N3CCc4cccc2c43)CC1 | 151 to 153
16 | CCOC(=O)c1ccc(-c2ccc3c(c2)OCO3)cc1 | 92.5 to 93.5
17 | CC(Cc1c[nH]c2ccccc12)(NC(=O)OC1C2CC3CC(C2)CC1C3)C(=O)NCCc1ccco1 (centres undefined) | 87 to 97
18 | COc1cc2c(cc1F)CCN=C2C1(c2ccccc2Cl)CC1 | 172 to 176
19 | CCNc1nc(OC)c(C(=O)NC2CCN(C3CCCCC3)C2)nc1Cl (centres undefined) | 171 to 173
20 | CS(=O)(=O)c1ccc(C(=O)C(=CO)C(=O)C2CC2)c(Cl)c1-c1nccs1 | 176
21 | CC(=O)OC1N=C(c2ccccc2Cl)c2c(cn(C)c2C)N(C)C1=O (centres undefined) | 202 to 204
22 | Cc1ccc2[nH]c3c(cc(-c4cccc(Nc5ccccn5)c4)c(=O)n3C)c2c1 | 250 to 252
23 | CC(C)Oc1ccc(F)c(-c2nn(C(C)c3oc4ccccc4c(=O)c3-c3cccc(F)c3)c3ncnc(N)c23)c1 (centres undefined) | 198 to 201
24 | ICC1COc2ccccc2O1 (centres undefined) | 38 to 40
25 | Cc1cc(C2=NCCc3ccccc32)n(C)n1 | 112

Row | SMILES | melting point [°C]
26 | CCC(=O)NC1=NN(c2ccccc2)C(C)C1 (centres undefined) | 96 to 96.5
27 | CC1=NN(CC(C)C)S(=O)(=O)c2sc(S(N)(=O)=O)cc21 | 140 to 142
28 | Nc1ccc(N2CCN(c3ccncc3)CC2)cc1 | 204 to 208
29 | COc1ccc(S(=O)(=O)N2C(=O)C(N)(c3cc(OC)ccc3OC)c3cc(Cl)ccc32)c(OC)c1 (centres undefined) | 191
30 | COc1cc(-c2ccc3c(c2)CC[C@H]2N(C)C(=O)CC[C@]32C)ccc1O | 247 to 250
31 | CC(C)C[C@@H](C(=O)N1CCN(C(c2ccc(F)cc2)c2ccc(F)cc2)CC1)N(Cc1ccc(C(C)(C)C)cc1)Cc1ccc(C(C)(C)C)cc1 | 78 to 86
32 | CCCOC(=O)CCc1cc(S(C)(=O)=O)cc(-c2nc(=O)c3ccc(Cl)cc3s2)n1 | 235 to 236
33 | O=C1C(CCC(O)c2ccc(F)cc2)C(c2ccc(-c3ccc(O)cc3)cc2)N1c1ccc(F)cc1 (centres undefined) | 110
34 | CCOc1nn(-c2ccc(C(F)(F)F)cn2)cc1CCCOc1ccccc1CC(=O)O | 83 to 84
35 | O=C(O)c1ccc(-c2nn(Cc3ccccc3)c3ccccc23)o1 | 200 to 202
36 | O=C1C=C(N2CCCCC2)c2oc3ccccc3c2C1=O | 151 to 156
37 | CCn1c(=O)c2c(nc(/C=C/c3ccc4c(c3)OCO4)n2C)n(CC)c1=O | 219 to 220
38 | O=C(O)c1cnc2n(c1=O)CCc1ccc(O)cc1-2 | 326 to 327
39 | COc1ccc(C2=NN(C(=O)c3cccc(NC(=O)c4ccc(NC(=O)c5ccc([N+](=O)[O-])cc5)cc4)c3)CCC2)cc1OCCN(C)C | 274
40 | C=CCONC(=O)Cc1ccc(OC)cc1 | 100 to 101
41 | O=C(O)CCCn1c(-c2ccc3c(c2)OCO3)nc2ccccc21 | 177 to 180
42 | CCNC(=O)Cc1cc(Oc2ccc(C(F)(F)F)cc2Cl)ccc1[N+](=O)[O-] | 189
43 | NC(=O)c1cccc(OCCCCC/C=C\c2ccsc2)c1 | 71 to 73
44 | COc1ccc2cc(S(N)(=O)=O)oc2c1 | 148 to 149
45 | COc1cc(N)c(Cl)cc1C(=O)N[C@H]1CCN(CCCNc2ncccn2)C[C@H]1OC (relative stereo) | 158
46 | O=C(CNC(=O)c1ccc(F)c([N+](=O)[O-])c1)OCc1ccccc1 | 84 to 86
47 | CS(=O)(=O)c1ccc(-c2cnn(-c3ccc(F)c(F)c3)c(=O)c2Oc2ccc(Cl)cc2)cc1 | 192 to 194
48 | CCCc1c(OC(=O)OCC)ccc2oc(Cc3ccc(OC)cc3)c(C)c12 | 51 to 53
49 | COc1ccc(C2CNCc3ccc(C)cc32)cc1OC (centres undefined) | 94 to 96
